Laboratory results published in ChEMBL document CHEMBL1201862, “PubChem BioAssay data set” (2004).
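Protocol summary: plate cells (96-well), add compound at 5 concentrations, incubate 48 h, interpolate endpoints linearly. The concentration for 50% growth inhibition is given as GI50.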 The source made the active and inactive calls. No stated cut-off is given here; in the data, active = GI50 up to about 1.1 µM and inactive = higher.

Columns and labels:
Assay in all cases: DTP human tumour cell line panel, 48 h
SNB-75 = test system: SNB-75
RXF 393 = test system: RXF 393
TK-10 = test system: TK-10
UACC-257 = test system: UACC-257
HCT-116 = test system: HCT-116
OVCAR-3 = test system: OVCAR-3
U-251 = test system: U-251
M14 = test system: M14
HT-29 = test system: HT-29
OVCAR-4 = test system: OVCAR-4
SF-268 = test system: SF-268
A549 = test system: A549
KM12 = test system: KM12
HCT-15 = test system: HCT-15
HL-60 = test system: HL-60
SNB-78 = test system: SNB-78
SK-MEL-5 = test system: SK-MEL-5
NCI-H226 = test system: NCI-H226
MDA-N = test system: MDA-N
MCF7 = test system: MCF7

Row | Compound | GI50 (SNB-75) | GI50 (RXF 393) | GI50 (TK-10) | GI50 (UACC-257) | GI50 (HCT-116) | GI50 (OVCAR-3) | GI50 (U-251) | GI50 (M14) | GI50 (HT-29) | GI50 (OVCAR-4) | GI50 (SF-268) | GI50 (A549) | GI50 (KM12) | GI50 (HCT-15) [µM] | GI50 (HL-60) | GI50 (SNB-78) | GI50 (SK-MEL-5) | GI50 (NCI-H226) | GI50 (MDA-N) | GI50 (MCF7)
1 | COc1cc2cc(OC)c3cc4c(cc3c2c(OC)c1OC)OCO4 | 7.55 µM (inactive) | 42.9 µM (inactive) | 48.3 µM (inactive) | 34.9 µM (inactive) | 38.2 µM (inactive) | 41.5 µM (inactive) | 20.8 µM (inactive) | 19.7 µM (inactive) | 10.9 µM (inactive) | 39.4 µM (inactive) | > 51.1 µM (inactive) | 44.6 µM (inactive) | 14.2 µM (inactive) | 12.8 | 15.3 µM (inactive) | 50.2 µM (inactive) | 23.4 µM (inactive) | > 100 µM (inactive) | – | –
2 | COc1cc(C(=O)C/C(CCC(=O)Nc2ccccc2[N+](=O)[O-])=N\NC(N)=O)ccc1O | > 100 µM (inactive) | > 100 µM (inactive) | > 100 µM (inactive) | > 100 µM (inactive) | > 100 µM (inactive) | > 100 µM (inactive) | > 100 µM (inactive) | > 100 µM (inactive) | > 100 µM (inactive) | – | > 100 µM (inactive) | > 100 µM (inactive) | > 100 µM (inactive) | > 100 | > 100 µM (inactive) | > 100 µM (inactive) | > 100 µM (inactive) | > 100 µM (inactive) | – | –
3 | NC(CS)C(=O)NCCNc1ccc(NCCNC(=O)C(N)CS)c2c1C(=O)c1c(O)ccc(O)c1C2=O (stereo not given) | 0.0236 µM (active) | 0.191 µM (active) | 0.667 µM (active) | 0.857 µM (active) | 0.0391 µM (active) | 0.405 µM (active) | 0.00579 µM (active) | 0.0248 µM (active) | 0.0897 µM (active) | 0.204 µM (active) | 0.0246 µM (active) | 0.00251 µM (active) | 0.135 µM (active) | 0.112 | 0.00175 µM (active) | 0.214 µM (active) | 0.0948 µM (active) | 0.00847 µM (active) | 0.359 µM (active) | 0.00402 µM (active)
4 | CC(=O)Nc1ccc(-c2nnc(SCC(=O)Nc3ccccc3[N+](=O)[O-])o2)cc1 | 92.7 µM (inactive) | > 100 µM (inactive) | > 100 µM (inactive) | > 100 µM (inactive) | > 100 µM (inactive) | 34.4 µM (inactive) | > 100 µM (inactive) | > 100 µM (inactive) | > 100 µM (inactive) | 73.1 µM (inactive) | > 100 µM (inactive) | > 100 µM (inactive) | > 100 µM (inactive) | > 100 | 52 µM (inactive) | > 100 µM (inactive) | > 100 µM (inactive) | > 100 µM (inactive) | – | –
5 | C1CCOC2(CCC3(CC2)OCCCCO3)OC1 | > 100 µM (inactive) | > 100 µM (inactive) | > 100 µM (inactive) | > 100 µM (inactive) | > 100 µM (inactive) | – | > 100 µM (inactive) | > 100 µM (inactive) | – | > 100 µM (inactive) | > 100 µM (inactive) | > 100 µM (inactive) | > 100 µM (inactive) | > 100 | > 100 µM (inactive) | > 100 µM (inactive) | > 100 µM (inactive) | > 100 µM (inactive) | – | –
6 | CCCCCCCCCCCCCCCCCC(=O)NCC(COP(=O)([O-])OCC[N+](C)(C)C)OC (stereo not given) | 5 µM (inactive) | 0.652 µM (active) | 1.56 µM (inactive) | 15.9 µM (inactive) | 5.66 µM (inactive) | 3.37 µM (inactive) | 1.87 µM (inactive) | 11.5 µM (inactive) | 3.45 µM (inactive) | 3.6 µM (inactive) | 5.2 µM (inactive) | 10.3 µM (inactive) | 0.766 µM (active) | 1.95 | 1.16 µM (inactive) | 4.3 µM (inactive) | 15.2 µM (inactive) | 3.44 µM (inactive) | – | –
7 | C[N+](C)(C)CC1CCC(C[N+](C)(C)C)C1=O (stereo not given) | 1.95 µM (inactive) | 1.91 µM (inactive) | 3.3 µM (inactive) | 2.92 µM (inactive) | 1.71 µM (inactive) | 2.39 µM (inactive) | 9.12 µM (inactive) | 1.72 µM (inactive) | 1.56 µM (inactive) | 2.38 µM (inactive) | – | 18.7 µM (inactive) | 4.65 µM (inactive) | 1.78 | – | 2.4 µM (inactive) | 9.02 µM (inactive) | 12.9 µM (inactive) | 4.94 µM (inactive) | 1.75 µM (inactive)
8 | O=P1(NCCCl)OCCCN1CCCl (stereo not given) [IFOSFAMIDE] | 334 µM (inactive) | 376 µM (inactive) | > 471 µM (inactive) | 345 µM (inactive) | 401 µM (inactive) | 365 µM (inactive) | 310 µM (inactive) | > 467 µM (inactive) | 406 µM (inactive) | 415 µM (inactive) | 351 µM (inactive) | 401 µM (inactive) | 406 µM (inactive) | 376 | 320 µM (inactive) | 384 µM (inactive) | 398 µM (inactive) | 393 µM (inactive) | > 500 µM (inactive) | 361 µM (inactive)
